Results on one compound are retold here after paper PMC10525135, “Computationally Designed AMPs with Antibacterial and Antibiofilm Activity against MDR Acinetobacter baumannii” (Antibiotics, 2023).

Converted amounts (≈) assume the structure as drawn. Where two headings read alike, the source gives them in different places. Residues, ends and D or L forms follow the SMILES beside them.

Format in all cases: cell-based, Acinetobacter baumannii
Assay [1] deals with A. baumannii BAA-1710. Description: Time-kill kinetics. The note with it: BAA-1710, all tested concentrations (1×, 5×, 10× MIC; MIC = 0.5 µg/mL). An excerpt:
(§1) At the various timepoints, samples were serially diluted, and CFUs were counted by spot plating on a Tryptic Soy agar.

Assay [2] has as its system A. baumannii AB5075. The assay is described as follows: Time-kill kinetics. The settings on record: AB5075, highest concentration (5 µg/mL).
From the text: as §1

Assay [3] deals with A. baumannii BAA-1794. The settings on record: A. baumannii BAA-1794; Difco Mueller Hinton broth, 5 × 10^5 CFU/mL, 37 °C 5% CO2, 20–24 h, OD600, n = 3. As for the experimental part: (§2) Minimum inhibitory concentration (n = 3) was performed according to the CLSI protocols with a minor modification, in which Difco Mueller Hinton broth (BD 275730, Franklin Lakes, NJ, USA) was used instead of cation-adjusted Mueller Hinton broth following Wiegand et al.’s standardized protocol for testing AMPs. Bacteria were grown overnight in an opaque colony, and the concentration was determined using McFarland’s technique. An aliquot of 50 µL of 1 × 10^6 CFU/mL of bacteria was incubated with a decreasing series of peptide concentration to achieve a final bacterial concentration of 5 × 10^5 CFU/mL at 37 °C 5% CO2 for 20–24 h in Difco Mueller Hinton broth. Dilutions were performed in a 96-well polypropylene plate (Corning 3879, Corning, NY, USA). This is critical to avoid peptide binding to the plate. Results were obtained by measuring bacterial growth at OD600 nm. LL-37 and polymyxin B were used as positive controls. Samples containing only the medium and medium with peptides were used as the sterility controls and samples containing only bacteria in MHB served as the growth control. Each experiment was performed twice, and one representative experiment is shown.

The test system of assay [4] is A. baumannii BAA-1710. The settings on record: A. baumannii BAA-1710; Difco Mueller Hinton broth, 5 × 10^5 CFU/mL, 37 °C 5% CO2, 20–24 h, OD600, n = 3. The protocol:
as §2

For assay [5], the system named is A. baumannii AB5075 (MRSN959). As for the experimental part:
as §2

The subject of assay [6] is A. baumannii BAA-1800. The settings on record: A. baumannii BAA-1800; Difco Mueller Hinton broth, 5 × 10^5 CFU/mL, 37 °C 5% CO2, 20–24 h, OD600, n = 3. As for the experimental part: as §2
For assay [7], the system named is A. baumannii strains AB5075, BAA-1710, -1794, and -1800. The note with it: summary over MDR A. baumannii strains of Table 3. As for the experimental part:
as §2

Usually MIC stands for the lowest concentration found to suppress growth. A lower MIC goes with inhibition by little substance. Turning to `CC[C@H](C)CCCCC(=O)N[C@@H](CCN)C(=O)N[C@H](C(=O)N[C@@H](CCN)C(=O)N[C@H]1CCNC(=O)[C@H]([C@@H](C)O)NC(=O)[C@H](CCN)NC(=O)[C@H](CCN)NC(=O)[C@H](CC(C)C)NC(=O)[C@@H](Cc2ccccc2)NC(=O)[C@H](CCN)NC1=O)[C@@H](C)O` [Polymyxin B] (HELM PEPTIDE1{[CC[C@H](C)CCCCC(=O)[*:2]].[Dab].T.[Dab].[Dab].[Dab].[dF].L.[Dab].[Dab].T}$PEPTIDE1,PEPTIDE1,5:R3-11:R2$$$V2.0; N-terminus assumed; bridges inferred), the “Killing within 3 h” value in assay [1] is recorded as “failed to kill”. In addition, in assay [2], the “Time to complete killing” value is listed as at most 3 h. The MIC is 0.5 µg/mL (≈ 0.415 µM) in assay [3]; 0.5 µg/mL (≈ 0.415 µM) in assay [4]; 0.25 to 0.5 µg/mL in assay [5] (A. baumannii AB5075 (MRSN959), Difco Mueller Hinton broth, 5 × 10^5 CFU/mL, 37 °C 5% CO2, 20–24 h, OD600, n = 3); 0.5 µg/mL (≈ 0.415 µM) in assay [5] (A. baumannii AB5075, experiment shown in Figure S2); 0.5 µg/mL (≈ 0.415 µM) in assay [6]. Moreover, the “MIC across the tested strains” value in assay [7] fell in the range of 0.25 to 0.5 µg/mL.
